This note sets out measurements from BindingDB's records for doi:10.1021/cb400407c (Duke University Medical Center, 2013).

Assay in all cases: Kinome Profiling
In assay [1] the target is Death-associated protein kinase 1 (Homo sapiens, UniProt P53355). The protocol: (§1) HS38 was evaluated using a P-33 ATP filter-binding assay by the International Centre for Kinase Profiling (University of Dundee) against 124 purified protein kinases using previously described methods.
Assay [2] deals with Rho-associated protein kinase 2 (Homo sapiens, UniProt O75116). As to the method:
as §1

Assay [3] has as its target Serine/threonine-protein kinase pim-2 (Homo sapiens, UniProt Q9P1W9). As to the method: as §1
Assay [4] concerns the target Serine/threonine-protein kinase pim-3 (Homo sapiens, UniProt Q86V86). As to the method:
as §1

Assay [5] deals with Serine/threonine-protein kinase pim-1 (Homo sapiens, UniProt P11309). As to the method:
as §1

“And” between values parts separate entries of the source, which are not always exact repeats. Identical values can stand only once. Bounds are passed on as bounds.

Chain of Death-associated protein kinase 1 (P53355 whole entry): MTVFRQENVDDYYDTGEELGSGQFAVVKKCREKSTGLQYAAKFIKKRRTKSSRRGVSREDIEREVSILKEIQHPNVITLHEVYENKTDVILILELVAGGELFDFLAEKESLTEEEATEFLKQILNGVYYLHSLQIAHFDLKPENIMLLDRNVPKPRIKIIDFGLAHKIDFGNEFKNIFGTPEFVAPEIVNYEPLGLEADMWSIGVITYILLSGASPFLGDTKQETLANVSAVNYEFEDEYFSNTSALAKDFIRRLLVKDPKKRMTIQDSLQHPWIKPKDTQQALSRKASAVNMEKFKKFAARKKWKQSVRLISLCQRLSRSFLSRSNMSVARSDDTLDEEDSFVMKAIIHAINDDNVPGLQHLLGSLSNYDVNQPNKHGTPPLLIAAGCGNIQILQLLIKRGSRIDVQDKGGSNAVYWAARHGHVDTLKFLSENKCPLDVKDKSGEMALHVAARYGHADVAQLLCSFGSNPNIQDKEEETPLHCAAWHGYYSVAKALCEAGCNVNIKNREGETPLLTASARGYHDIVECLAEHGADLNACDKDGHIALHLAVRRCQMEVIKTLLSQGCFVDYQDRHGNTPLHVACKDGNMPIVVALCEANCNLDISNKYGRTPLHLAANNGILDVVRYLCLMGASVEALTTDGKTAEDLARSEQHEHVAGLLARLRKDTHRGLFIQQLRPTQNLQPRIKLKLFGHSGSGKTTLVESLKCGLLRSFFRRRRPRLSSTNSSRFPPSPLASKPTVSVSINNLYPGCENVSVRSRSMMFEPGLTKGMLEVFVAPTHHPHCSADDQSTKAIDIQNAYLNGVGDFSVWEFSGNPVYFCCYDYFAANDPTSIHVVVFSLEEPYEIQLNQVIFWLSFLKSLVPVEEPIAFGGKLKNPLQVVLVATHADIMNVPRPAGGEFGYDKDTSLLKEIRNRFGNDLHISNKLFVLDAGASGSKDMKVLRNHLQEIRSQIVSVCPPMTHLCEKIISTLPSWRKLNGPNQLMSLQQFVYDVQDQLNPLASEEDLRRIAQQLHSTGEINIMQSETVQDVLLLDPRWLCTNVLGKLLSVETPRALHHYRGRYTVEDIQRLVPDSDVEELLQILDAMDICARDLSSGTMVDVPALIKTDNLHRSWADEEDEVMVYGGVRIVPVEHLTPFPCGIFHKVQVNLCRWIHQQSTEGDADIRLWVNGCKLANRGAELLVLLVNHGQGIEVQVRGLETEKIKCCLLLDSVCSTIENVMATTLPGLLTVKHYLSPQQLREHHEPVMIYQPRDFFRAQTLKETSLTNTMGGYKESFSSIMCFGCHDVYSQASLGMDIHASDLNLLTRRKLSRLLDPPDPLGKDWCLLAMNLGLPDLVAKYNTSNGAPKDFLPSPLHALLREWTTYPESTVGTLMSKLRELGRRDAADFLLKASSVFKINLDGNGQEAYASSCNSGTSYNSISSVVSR
Chain of Serine/threonine-protein kinase pim-2 (Q9P1W9 whole entry): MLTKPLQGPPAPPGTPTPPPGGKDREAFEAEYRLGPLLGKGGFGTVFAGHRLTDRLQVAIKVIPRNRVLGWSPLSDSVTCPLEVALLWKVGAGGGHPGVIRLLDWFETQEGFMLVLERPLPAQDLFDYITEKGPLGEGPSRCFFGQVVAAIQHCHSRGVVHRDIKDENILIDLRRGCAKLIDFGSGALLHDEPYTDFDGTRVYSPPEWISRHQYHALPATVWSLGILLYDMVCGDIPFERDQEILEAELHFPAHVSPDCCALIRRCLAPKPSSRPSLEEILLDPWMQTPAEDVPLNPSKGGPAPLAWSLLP
Chain of Serine/threonine-protein kinase pim-1 (P11309 whole entry): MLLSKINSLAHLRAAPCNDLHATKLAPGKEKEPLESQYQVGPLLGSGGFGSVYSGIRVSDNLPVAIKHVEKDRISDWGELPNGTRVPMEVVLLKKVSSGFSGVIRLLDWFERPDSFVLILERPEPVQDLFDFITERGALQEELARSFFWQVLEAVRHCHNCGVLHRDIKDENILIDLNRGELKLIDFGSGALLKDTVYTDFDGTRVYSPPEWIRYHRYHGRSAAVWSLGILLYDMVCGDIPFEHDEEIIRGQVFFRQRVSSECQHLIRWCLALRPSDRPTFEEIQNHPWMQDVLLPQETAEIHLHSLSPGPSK
Chain of Rho-associated protein kinase 2 (O75116 whole entry): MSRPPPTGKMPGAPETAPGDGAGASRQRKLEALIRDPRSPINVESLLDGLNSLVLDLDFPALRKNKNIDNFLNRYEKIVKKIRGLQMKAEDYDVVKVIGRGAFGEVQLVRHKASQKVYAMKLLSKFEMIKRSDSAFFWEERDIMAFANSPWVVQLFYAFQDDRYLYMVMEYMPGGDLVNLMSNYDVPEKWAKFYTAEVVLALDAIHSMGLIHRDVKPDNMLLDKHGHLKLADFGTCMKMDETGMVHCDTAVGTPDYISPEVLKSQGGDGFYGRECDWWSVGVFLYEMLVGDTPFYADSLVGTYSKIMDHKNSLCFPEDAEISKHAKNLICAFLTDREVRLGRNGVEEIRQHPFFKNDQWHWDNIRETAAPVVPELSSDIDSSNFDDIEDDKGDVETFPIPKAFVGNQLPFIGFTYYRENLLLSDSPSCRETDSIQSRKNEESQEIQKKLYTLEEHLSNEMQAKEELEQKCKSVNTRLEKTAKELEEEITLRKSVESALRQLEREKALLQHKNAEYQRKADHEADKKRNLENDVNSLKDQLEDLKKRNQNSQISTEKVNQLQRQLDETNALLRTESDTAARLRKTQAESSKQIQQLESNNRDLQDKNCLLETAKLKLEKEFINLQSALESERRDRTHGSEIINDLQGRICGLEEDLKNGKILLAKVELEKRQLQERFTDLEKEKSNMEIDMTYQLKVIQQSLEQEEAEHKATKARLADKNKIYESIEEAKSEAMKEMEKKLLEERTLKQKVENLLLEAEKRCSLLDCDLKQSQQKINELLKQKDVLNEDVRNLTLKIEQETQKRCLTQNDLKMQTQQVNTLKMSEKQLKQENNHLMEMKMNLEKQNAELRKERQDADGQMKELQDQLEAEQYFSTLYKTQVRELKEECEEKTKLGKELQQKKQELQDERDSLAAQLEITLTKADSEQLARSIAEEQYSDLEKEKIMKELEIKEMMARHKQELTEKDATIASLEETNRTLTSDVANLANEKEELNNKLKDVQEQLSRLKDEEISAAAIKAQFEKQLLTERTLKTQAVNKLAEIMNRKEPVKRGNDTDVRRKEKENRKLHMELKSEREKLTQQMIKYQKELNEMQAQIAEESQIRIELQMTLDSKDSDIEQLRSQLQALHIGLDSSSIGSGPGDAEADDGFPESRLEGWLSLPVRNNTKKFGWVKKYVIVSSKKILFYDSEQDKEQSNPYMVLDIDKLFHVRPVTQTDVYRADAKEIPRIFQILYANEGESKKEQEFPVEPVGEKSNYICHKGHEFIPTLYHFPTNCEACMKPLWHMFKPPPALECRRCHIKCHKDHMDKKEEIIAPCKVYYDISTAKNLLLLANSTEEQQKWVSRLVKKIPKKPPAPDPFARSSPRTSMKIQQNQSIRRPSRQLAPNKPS

As a reminder, the Kd is the equilibrium constant for the complex coming apart. As usually defined, the IC50 is the point on the concentration scale where inhibition reaches its midpoint. Lower therefore signals higher potency. As for `CC(Sc1nc2c(cnn2-c2cccc(Cl)c2)c(=O)[nH]1)C(N)=O` (centres undefined) [HS38], the Kd in assay [1] is 0.3 µM and 0.079 µM and 0.28 µM; in assay [3], 6.5 µM; in assay [4] it was 0.81 µM; in assay [5], 1.8 µM. In assay [2], this compound registered an IC50 greater than 200 µM.
As for `O=c1[nH]c(SCCO)nc2c1cnn2-c1cccc(Cl)c1` [HS43], the dissociation constant (Kd) is 1.5 µM and 0.32 µM in assay [1]; 3.2 µM in assay [3]; 1.6 µM in assay [4]; 1.8 µM in assay [5].
